The subject of this test is P388 leukemia ip, CD2F1 mice, survival T/C. The test is described as follows: NCI In Vivo Anticancer Drug Screen. Data for tumor model P388 Leukemia (intraperitoneal) in CD2F1 (CDF1) mice. The settings on record: endpoint: median survival time, higher = longer survival. In a few lines:
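Mice carrying the transplanted tumor received test compound or vehicle. Survival was recorded in each group, and the value is the treated-group measurement divided by that of the vehicle-treated control group.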

[1] abbreviates: dose: 50.0 mg/kg/injection, schedule: Q01DX005 (ip), vehicle: saline with Tween-80.
Where [2] appears, read: dose: 100.0 mg/kg/injection, schedule: Q01DX005 (ip), vehicle: saline with Tween-80.
The mark [3] stands for this setting: dose: 200.0 mg/kg/injection, schedule: Q01DX005 (ip), vehicle: saline with Tween-80.
The mark [4] stands for this setting: dose: 100.0 mg/kg/injection, schedule: Q04DX002 (ip), vehicle: saline with Tween-80.
The mark [5] stands for this setting: dose: 200.0 mg/kg/injection, schedule: Q04DX002 (ip), vehicle: saline with Tween-80.
The mark [6] stands for this setting: dose: 400.0 mg/kg/injection, schedule: Q04DX002 (ip), vehicle: saline with Tween-80.
The mark [7] stands for this setting: dose: 25.0 mg/kg/injection, schedule: Q01DX005 (ip), vehicle: Klucel (hydroxypropylcellulose) (HPC).
Setting [8] is: dose: 50.0 mg/kg/injection, schedule: Q04DX003 (ip), vehicle: saline.
[9] abbreviates: dose: 100.0 mg/kg/injection, schedule: Q04DX003 (ip), vehicle: saline.
Where [10] appears, read: dose: 200.0 mg/kg/injection, schedule: Q04DX003 (ip), vehicle: saline.
Where [11] appears, read: dose: 400.0 mg/kg/injection, schedule: Q04DX003 (ip), vehicle: saline.
Setting [12] is: dose: 25.0 mg/kg/injection, schedule: Q04DX003 (ip), vehicle: saline.
Setting [13] is: dose: 100.0 mg/kg/injection, schedule: Q04DX003 (ip), vehicle: saline with Tween-80.
Setting [14] is: dose: 200.0 mg/kg/injection, schedule: Q04DX003 (ip), vehicle: saline with Tween-80.
[15] abbreviates: dose: 400.0 mg/kg/injection, schedule: Q04DX003 (ip), vehicle: saline with Tween-80.
[16] abbreviates: dose: 60.0 mg/kg/injection, schedule: Q01DX005 (ip), vehicle: saline with Tween-80.
The mark [17] stands for this setting: dose: 120.0 mg/kg/injection, schedule: Q01DX005 (ip), vehicle: saline with Tween-80.
Where [18] appears, read: dose: 240.0 mg/kg/injection, schedule: Q01DX005 (ip), vehicle: saline with Tween-80.
The mark [19] stands for this setting: dose: 50.0 mg/kg/injection, schedule: Q01DX009 (ip), vehicle: saline with Tween-80.
The mark [20] stands for this setting: dose: 50.0 mg/kg/injection, schedule: Q01DX005 (ip), vehicle: Klucel (hydroxypropylcellulose) (HPC).
Setting [21] is: dose: 100.0 mg/kg/injection, schedule: Q01DX005 (ip), vehicle: Klucel (hydroxypropylcellulose) (HPC).
Setting [22] is: dose: 200.0 mg/kg/injection, schedule: Q01DX005 (ip), vehicle: Klucel (hydroxypropylcellulose) (HPC).
Where [23] appears, read: dose: 60.0 mg/kg/injection, schedule: Q01DX005 (ip), vehicle: saline.
Setting [24] is: dose: 120.0 mg/kg/injection, schedule: Q01DX005 (ip), vehicle: saline.
[25] abbreviates: dose: 240.0 mg/kg/injection, schedule: Q01DX005 (ip), vehicle: saline.

Our source for the T/C values is PubChem BioAssay AID330 (DTP/NCI, 2004).

Each structure is given as a SMILES string. Values joined by “and” are separate entries in the source; they are usually repeats but may differ in a detail not shown here. Equal entries are not always repeated. Inconclusive results and toxic doses are left out.

With `O=[N+]([O-])c1ccc(Oc2ccccc2[N+](=O)[O-])nc1`, the T/C was 106 % of control (dose: 6.25 mg/kg/injection, schedule: Q01DX009 (ip), vehicle: Klucel (hydroxypropylcellulose) (HPC)); 105 % of control (dose: 12.5 mg/kg/injection, schedule: Q01DX009 (ip), vehicle: Klucel (hydroxypropylcellulose) (HPC)); 103 % of control (dose: 25.0 mg/kg/injection, schedule: Q01DX009 (ip), vehicle: Klucel (hydroxypropylcellulose) (HPC)).

Turning to `Cn1c(=O)ccc2c(=O)c3c(ccc4ccccc43)oc21`, the T/C was 94 % of control under setting [1], 92 % of control under setting [2] and 91 % of control under setting [3].

With `O=c1[nH]c(-c2ccc(O)cc2)cc2ccccc12`, the T/C under setting [4] was 99 % of control, the T/C under setting [5] was 100 % of control and the T/C under setting [6] is 100 % of control.

In the case of `N#CSCCC(=O)Nc1ccccc1`, the T/C by setting is: (dose: 6.25 mg/kg/injection, schedule: Q01DX005 (ip), vehicle: Klucel (hydroxypropylcellulose) (HPC)) 102 % of control; (dose: 12.5 mg/kg/injection, schedule: Q01DX005 (ip), vehicle: Klucel (hydroxypropylcellulose) (HPC)) 101 % of control; under setting [7], 104 % of control.

For `O=c1n(-c2ccccc2)c(=O)n2n1C1CC3c4ccccc4C1C2C31CC1` (configuration not stated), the T/C was 104 % of control under setting [1], 101 % of control under setting [2] and 92 % of control under setting [3].

As to `Cc1cccc(C)c1NC=O`, the T/C is 112 % of control under setting [8], 105 % of control under setting [9], 106 % of control under setting [10] and 106 % of control under setting [11].

For the compound `OCCOCCN1CCN(CCCN2c3ccccc3Sc3ccc(C(F)(F)F)cc32)CC1`, the T/C is 114 % of control (dose: 12.5 mg/kg/injection, schedule: Q04DX003 (ip), vehicle: saline) and 117 % of control under setting [12].

Regarding `O=C(O)CCN1C(=O)c2ccccc2C1=O`, the T/C runs as follows: under setting [13], 100 % of control; under setting [14], 100 % of control; under setting [15], 95 % of control.

With `CCOc1ccc(Cc2ccc3c(c2)OCO3)cc1C`, the T/C reads like this: under setting [1], 101 % of control; under setting [2], 108 % of control; under setting [3], 111 % of control.

For `[Se]=P(c1ccccc1)(N1CCOCC1)N1CCOCC1`, the T/C runs as follows: (dose: 13.75 mg/kg/injection, schedule: Q01DX001 (ip), vehicle: Klucel (hydroxypropylcellulose) (HPC)) 96 % of control; (dose: 27.5 mg/kg/injection, schedule: Q01DX001 (ip), vehicle: Klucel (hydroxypropylcellulose) (HPC)) 112 % of control.

Take `CCN(CC)SC(=S)SN(CC)CC`: the T/C under setting [8] was 98 % of control, the T/C under setting [9] was 96 % of control, the T/C under setting [10] is 98 % of control and the T/C under setting [11] is 104 % of control.

Regarding `Cc1cccc(C)c1NC(=O)CCC(=O)CC(=O)c1ccncc1`, the T/C runs as follows: under setting [16], 103 % of control; under setting [17], 105 % of control; under setting [18], 101 % of control.

In the case of `CC1CN=C(c2ccc(NC(=O)c3ccc(C(=O)Nc4ccc(C5=NCC(C)N5)cc4)cc3)cc2)N1` (configuration not stated), the T/C (dose: 6.25 mg/kg/injection, schedule: Q01DX009 (ip), vehicle: suspension in saline) is 184 % of control; the T/C (dose: 10.0 mg/kg/injection, schedule: Q01DX010 (ip), vehicle: saline) was 209 % of control; the T/C (dose: 12.5 mg/kg/injection, schedule: Q01DX009 (ip), vehicle: suspension in saline) was 245 % of control; the T/C (dose: 15.0 mg/kg/injection, schedule: Q01DX010 (ip), vehicle: saline) is 231 % of control; the T/C (dose: 22.0 mg/kg/injection, schedule: Q01DX010 (ip), vehicle: saline) was 154 % of control; the T/C (dose: 25.0 mg/kg/injection, schedule: Q01DX009 (ip), vehicle: suspension in saline) is 294 % of control. The T/C (dose: 33.0 mg/kg/injection, schedule: Q01DX010 (ip), vehicle: saline) is 209 % of control; the T/C (dose: 50.0 mg/kg/injection, schedule: Q01DX009 (ip), vehicle: suspension in saline) was 166 % of control; the T/C (dose: 100.0 mg/kg/injection, schedule: Q01DX009 (ip), vehicle: suspension in saline) was 154 % of control.

Take `CNC(=O)c1c(-c2ccc(F)cc2)noc1C`: the T/C under setting [16] is 103 % of control, the T/C under setting [17] is 100 % of control and the T/C under setting [18] was 103 % of control.

As to `COc1ccc(C(=O)CCc2c(-c3ccccc3)[nH]c3ccccc23)c(O)c1`, the T/C under setting [16] was 107 % of control, the T/C under setting [17] is 100 % of control and the T/C under setting [18] is 97 % of control.

For `CCOCN(COCC)c1ccccn1`, the T/C was 100 % of control (dose: 25.0 mg/kg/injection, schedule: Q01DX009 (ip), vehicle: saline with Tween-80); 105 % of control and 116 % of control under setting [19].

In the case of `C=CCSc1cccc2ccccc12`, the T/C is 100 % of control under setting [19] and 109 % of control (dose: 100.0 mg/kg/injection, schedule: Q01DX009 (ip), vehicle: saline with Tween-80).

As to `CCC(/C=C/c1ccccc1)=N\Nc1ccccc1`, the T/C was 104 % of control under setting [1]; 105 % of control under setting [2]; 104 % of control under setting [3]; 98 % of control (dose: 400.0 mg/kg/injection, schedule: Q01DX005 (ip), vehicle: saline with Tween-80).

For `C=C(C)C1Cc2cc(C(C)=O)c(O)c(OC)c2O1` (configuration not stated), the T/C is 101 % of control under setting [7], 108 % of control under setting [20], 97 % of control under setting [21] and 99 % of control under setting [22].

`CCCCCC12OCC(C)(C)N1O2` (configuration not stated): the T/C reads like this: under setting [23], 100 % of control; under setting [24], 109 % of control; under setting [25], 103 % of control.

As to `CCN(CC)CCCC(C)Nc1cc(-c2ccccc2)nc2cc(Cl)ccc12` (configuration not stated), the T/C was 106 % of control (dose: 50.0 mg/kg/injection, schedule: Q01DX005 (ip), vehicle: saline); 112 % of control (dose: 100.0 mg/kg/injection, schedule: Q01DX005 (ip), vehicle: saline); 116 % of control (dose: 200.0 mg/kg/injection, schedule: Q01DX005 (ip), vehicle: saline).

Turning to `COC1=CC(=O)OC1n1ccc(OC)nc1=O` (configuration not stated), the T/C under setting [20] is 100 % of control, the T/C under setting [21] was 95 % of control and the T/C under setting [22] was 95 % of control.

Take `CNC(=S)N/N=C(\C)C(C)(C)C`: the T/C is, setting by setting: under setting [12], 101 % of control; under setting [8], 101 % of control; under setting [9], 99 % of control and 104 % of control.

On to `COc1ccc2c(C)cc(N/N=C/c3ccc(OC)c4ccccc34)nc2c1`, for which the T/C was 98 % of control under setting [20], 102 % of control under setting [21] and 94 % of control under setting [22].

In the case of `COc1ccc(C(=O)Cc2nc3nnc(N)n3[nH]c2=O)cc1`, the T/C was 99 % of control under setting [23], 104 % of control under setting [24] and 103 % of control under setting [25].

As for `Cc1[nH]cnc1CSCCN=C(N)n1[nH]cc(-c2ccc(Cl)cc2)c1=O`, the T/C (dose: 100.0 mg/kg/injection, schedule: Q01DX001 (ip), vehicle: Klucel (hydroxypropylcellulose) (HPC)) is 100 % of control; the T/C (dose: 200.0 mg/kg/injection, schedule: Q01DX001 (ip), vehicle: Klucel (hydroxypropylcellulose) (HPC)) is 97 % of control; the T/C (dose: 400.0 mg/kg/injection, schedule: Q01DX001 (ip), vehicle: Klucel (hydroxypropylcellulose) (HPC)) is 101 % of control.

Regarding `CC12C=CC(C(C(=O)O)C1=O)C2(C)C` (configuration not stated), the T/C is, setting by setting: under setting [4], 107 % of control; under setting [5], 103 % of control.

In the case of `CC(=O)NC(CSC(c1ccccc1)c1ccccc1)C(C)=O` (configuration not stated), the T/C is 103 % of control under setting [13], 106 % of control under setting [14] and 113 % of control under setting [15].

On to `Cc1ccc(S(=O)(=O)N=C(N(C)C)N(C)C)cc1`, for which the T/C is 99 % of control under setting [4], 100 % of control under setting [5] and 104 % of control under setting [6].
